Literature values as cited in patent US20020128313A1, “Method for improved pregnancy management and related composition” (priority 2000, published 2002).

Test system: sows
[1] = 5 mg in extended boar sperm (Gil et al., 1998)

CCCCC[C@H](O)/C=C/[C@@H]1[C@@H](C/C=C\CCCC(=O)O)[C@@H](O)C[C@H]1O [PGF2α, Prostaglandin F2α]
Likelihood of a sow to become pregnant [1]: increased the likelihood of a sow to become pregnant | Number of piglets born alive [1]: increased number of piglets born alive | Effect on seasonal infertility in sows (Pena et al., 1998): helped alleviate the effect of seasonal infertility
